Read-outs that look alike come from different tables or passages of the source.
System: M abscessus ATCC 19977 Type strain
Experiment: checkerboard minimum inhibitory concentration (MIC) assay with FICI calculation
Type: cell-based
Settings: for MIC: 168 h; for Active Agent-Y MIC Combination: MIC of the labelled Antiinfective-Y in combination with amikacin; for Definition (interpretation of FICI) / FICI (Fractional Inhibitory Concentration Index): labelled Antiinfective-Y in combination with amikacin
[1] = Antiinfective-Y alone, M abscessus ATCC 19977, 37° C., 7 days, absorbance 595 nm, read-out: Active Agent-Y MIC Alone
[2] = read-out: Active Agent-Y MIC Alone

Compound | MIC [1] [µg/mL] | Active Agent-Y MIC Combination (M abscessus ATCC 19977, 7 days) [µg/mL] | Definition (interpretation of FICI) (M abscessus ATCC 19977) | FICI (Fractional Inhibitory Concentration Index) (M abscessus ATCC 19977) | MIC [2] [µg/mL] | MIC (amikacin alone (column 12 of the checkerboard plate run with the row's Antiinfective-Y), M abscessus ATCC 19977, 37° C., 7 days, absorbance 595 nm, read-out: Amikacin (Active Agent-X) MIC Alone) [µg/mL] | Amikacin (Active Agent-X) MIC Alone (amikacin alone (column 12 of the checkerboard plate run with the row's Antiinfective-Y), M abscessus ATCC 19977, 37° C., 7 days, absorbance 595 nm) [µg/mL]
C[C@@H](O)[C@H]1C(=O)N2C(C(=O)O)=C(S[C@@H]3CN[C@H](CNS(N)(=O)=O)C3)[C@H](C)[C@H]12 [Doripenem] | 4 | 0.25 | Synergy (<0.5) | 0.31 | – | – | –
COc1ccc2cc1Oc1ccc(cc1)C[C@H]1c3cc(c(OC)cc3CCN1C)Oc1c(OC)c(OC)cc3c1[C@H](C2)N(C)CC3 [Tetrandrine] | – | 8 | Synergy (<0.5) | 0.25 | 64 | – | –
C=CC1=C(C(=O)O)N2C(=O)[C@@H](NC(=O)/C(=N\O)c3csc(N)n3)[C@H]2SC1 [Cefdinir] | 8 | 0.5 | Synergy (<0.5) | 0.13 | – | – | –
CO[C@H]1/C=C/O[C@@]2(C)Oc3c(C)c(O)c4c(O)c(c(/C=N/N5CCN(C)CC5)c(O)c4c3C2=O)NC(=O)/C(C)=C\C=C\[C@H](C)[C@H](O)[C@@H](C)[C@@H](O)[C@@H](C)[C@H](OC(C)=O)[C@@H]1C [Rifampicin] | – | 0.5 | Synergy (<0.5) | 0.31 | 8 | – | –
COc1c(N2C[C@@H]3CCCN[C@@H]3C2)c(F)cc2c(=O)c(C(=O)O)cn(C3CC3)c12 [Moxifloxacin] | – | 0.125 | Synergy (<0.5) | 0.38 | 1 | – | –
CN(C)c1cc(NC(=O)CNC(C)(C)C)c(O)c2c1C[C@H]1C[C@H]3[C@H](N(C)C)C(O)=C(C(N)=O)C(=O)[C@@]3(O)C(O)=C1C2=O [Tigecycline] | – | 0.5 | Additive | 0.75 | 2 | – | –
CC(=O)NC[C@H]1CN(c2ccc(N3CCOCC3)c(F)c2)C(=O)O1 [Linezolid] | 2 | 2 | Additive | 3.00 | – | – | –
C[C@@H](O)[C@H]1C(=O)N2C(C(=O)[O-])=C(SC3Cn4cnc[n+]4C3)[C@H](C)[C@H]12 (some centres unmarked) [Biapenem] | 8 | 0.0625 | Synergy (<0.5) | 0.07 | – | – | –
CC[C@@H](CO)NCCN[C@@H](CC)CO [Ethambutol] | – | 4 | Synergy (<0.5) | 0.38 | 16 | – | –
C[C@H]1COc2c(N3CCN(C)CC3)c(F)cc3c(=O)c(C(=O)O)cn1c23 [Levofloxacin] | – | 0.0625 | Synergy (<0.5) | 0.14 | 4 | – | –
CC(C)/N=c1\cc2n(-c3ccc(Cl)cc3)c3ccccc3nc-2cc1Nc1ccc(Cl)cc1 [Clofazimine] | – | 0.0625 | Synergy (<0.5) | 0.16 | 2 | – | –
Cn1nnc(-c2ccc(-c3ccc(N4C[C@H](CO)OC4=O)cc3F)cn2)n1 [Tedizolid] | 0.5 | 0.5 | Additive | 3.00 | – | – | –
C[C@@H](O)[C@H]1C(=O)N2C(C(=O)O)=C(SC3CN(C4=NCCS4)C3)[C@H](C)[C@H]12 [Tebipenem] | 8 | 0.25 | Synergy (<0.5) | 0.28 | – | – | –
CC[C@H]1OC(=O)[C@H](C)[C@@H](O[C@H]2C[C@@](C)(OC)[C@@H](O)[C@H](C)O2)[C@H](C)[C@@H](O[C@@H]2O[C@H](C)C[C@H](N(C)C)[C@H]2O)[C@](C)(OC)C[C@@H](C)C(=O)[C@H](C)[C@@H](O)[C@]1(C)O [Clarithromycin] | 0.5 | 0.25 | Additive | 2.50 | – | – | –
CO[C@H]1/C=C/O[C@@]2(C)Oc3c(C)c(O)c4c(c3C2=O)C2=NC3(CCN(CC(C)C)CC3)NC2=C(NC(=O)/C(C)=C\C=C\[C@H](C)[C@H](O)[C@@H](C)[C@@H](O)[C@@H](C)[C@H](OC(C)=O)[C@@H]1C)C4=O [Rifabutin] | 1 | 0.0625 | Synergy (<0.5) | 0.31 | – | – | –
COc1nc2ccc(Br)cc2cc1[C@@H](c1ccccc1)[C@@](O)(CCN(C)C)c1cccc2ccccc12 [Bedaquiline] | – | 0.125 | Synergy (<0.5) | 0.09 | 2 | – | –
CN[C@H](CC(C)C)C(=O)N[C@H]1C(=O)N[C@@H](CC(N)=O)C(=O)N[C@H]2C(=O)N[C@H]3C(=O)N[C@H](C(=O)N[C@H](C(=O)O)c4cc(O)cc(O)c4-c4cc3ccc4O)[C@H](O)c3ccc(c(Cl)c3)Oc3cc2cc(c3O[C@@H]2O[C@H](CO)[C@@H](O)[C@H](O)[C@H]2O[C@H]2C[C@](C)(N)[C@H](O)[C@H](C)O2)Oc2ccc(cc2Cl)[C@H]1O [Vancomycin] | – | 1 | Additive | 0.50 | 4 | – | –
NCC[C@H](O)C(=O)N[C@@H]1C[C@H](N)[C@@H](O[C@H]2O[C@H](CN)[C@@H](O)[C@H](O)[C@H]2O)[C@H](O)[C@H]1O[C@H]1O[C@H](CO)[C@@H](O)[C@H](N)[C@H]1O [Amikacin] | – | – | – | – | – | 2 | 1
C[C@@H](O)[C@H]1C(=O)N2C(C(=O)O)=C(SCCN=CN)C[C@H]12 [Imipenem] | 2 | 0.25 | Synergy (<0.5) | 0.38 | – | – | –

— patent publication US20250082570A1, “COMBINATION THERAPY FOR TREATING NON-TUBERCULOUS MYCOBACTERIAL LUNG DISEASE” (priority 2021, published 2025)
